Where “and” joins values, the source holds several entries; their conditions need not be identical. Equal entries are not always repeated.
Assays:
MMP-9 = assay: Inhibition test of matrix metalloproteinase expression in UVB-irradiated fibroblast Hs68 (western blotting): MMP-9; assay type: cell-based, human; conditions: expression relative to control group (1.00); UVB 40 mJ/cm^2, Hs68; 10 μg/mL
Method: (§1) A total of 5×10^5 fibroblast Hs68 (human foreskin fibroblast, Bioresource Collection and Research Center (BCRC) number:60038, purchased from Food Industry Research and Development Institute (FIRDI)) was counted and cultivated in a culture medium (90% Dulbecco's modified Eagle's medium adjusted with 4 mM of L-glutamine, containing 1.5 g/L NaHCO3, 4.5 g/L glucose, and 10% heat-inactivated fetal bovine serum) with a diameter of 10 cm. After the fibroblast Hs68 grew to a density of 80%, the culture solution was removed, and the cells were rinsed with 5 mL of a phosphate buffer saline (PBS) solution once. Then, 3 mL of a phenol red-free culture solution containing the Neonauclea reticulata leaf water extract with different concentrations ([…]) was added into the culture medium, and was reacted for 1 hour. The cells were placed under ultraviolet light (40 mJ/cm^2, Ultraviolet B (UVB)) for irradiation. […] Using luminescence imaging technology with an associated analysis software and LAS-4000 (FUJIFILM) to record the image, and a quantitative analysis was carried out by multi Gauge […] […]

MMP-3 = assay: Inhibition test of matrix metalloproteinase expression in UVB-irradiated fibroblast Hs68 (western blotting): MMP-3; assay type: cell-based, human; conditions: expression relative to control group (1.00); UVB 40 mJ/cm^2, Hs68; 10 μg/mL
Method: as §1

MMP-1 = assay: Inhibition test of matrix metalloproteinase expression in UVB-irradiated fibroblast Hs68 (western blotting): MMP-1; assay type: cell-based, human; conditions: expression relative to control group (1.00); UVB 40 mJ/cm^2, Hs68; 10 μg/mL
Method: as §1

[1] = Anti-oxidation test: DPPH free radicals removal test; assay type: biochemical; conditions: DPPH scavenging, 50 μg/mL
Method: A 100 μL of the Neonauclea reticulata leaf water extract, methanol extract, or the hydrolytes thereof with different concentrations (10 to 100 μg/mL) and a 100 μL. DPPH solution (200 μM) dissolved in methanol were added in a 96-well microplate, and were mixed evenly and placed under 37° C. away from light for 30 minutes. The absorbance of the mixture was determined by an enzyme immunoassay instrument under a wavelength of 517 nm. In this test, the extract was replaced by 50 vol % propylene glycol as the control group, and ascorbic acid (vitamin C) was used as a positive control group, and DPPH was replaced by methanol for determining the background value. The ability of the Neonauclea reticulata leaf extract to remove free radicals was calculated by the following formula. The results are shown in Table 5 to Table 7 and FIG. 12 to FIG. 14. [formula]

Row | SMILES | MMP-9 (MMP-9) | MMP-3 (MMP-3) | MMP-1 (MMP-1) | Inhibition ([1]; Table 5) | Inhibition Rate ([1]; Tables 6 and 7)
1 | O=C(O[C@@H]1Cc2c(O)cc(O)cc2O[C@@H]1c1cc(O)c(O)c(O)c1)c1cc(O)c(O)c(O)c1 [EGCG] | 0.95 ± 0.26 | 1.15 ± 0.16 | 1.10 ± 0.15 |  | 
2 | O=C1O[C@H]([C@@H](O)CO)C(O)=C1O [Vitamin C, ascorbic acid] |  |  |  | 98.60 ± 0.32 | 88.36 ± 2.71 and 97.99 ± 0.12

Reference: patent publication US8349371B2, “Method for anti-oxidation, inhibiting activity and/or expression of matrix metalloproteinase, and/or inhibiting phosphorylation of mitogen-activated protein kinase using neonauclea reticulata leaf extracts” (China Medical University, priority 2010, dated 2013)
